# From patent US20200390729A1, “OPHTHALMIC TOPICAL COMPOSITION COMPRISING DOBESILIC ACID FOR TREATING DISEASES OF THE POSTERIOR SEGMENT OF THE EYE” (LABORATORIOS SALVAT, S.A., priority 2017, published 2020)
# Like-named read-outs stand apart in the source and are kept apart here.
# How the values were obtained:
# [1] = Ocular distribution of CDO in rabbits, single dose topical ocular vs. oral; assay type: in vivo, New Zealand White rabbit; settings: for concentration at 0.25 h / concentration at 1 h / concentration at 3 h / concentration at 6 h: New Zealand White
# Procedure: In New Zealand White rabbit, weighing approximately 1.8 kg, CDO was administered by topical ocular instillation (33 μl/eye) at 10 mg/ml (composition 2 of Example 1), at 100 mg/ml (composition 5 of Example 1) or by oral gavage at 25 mg/kg in aqueous solution (from composition 1 of Example 1). At 15, 60, 180 and 360 minutes post-administration, animals were euthanized and plasma and ocular tissues including retina/choroid and optic nerve were collected.
# Bioanalysis of CDO was performed depending on the type of matrix. In the case of plasma, proteins were precipitated using methanol. In the case of tissues, samples were grinded in a Mini Bead Beater using zirconium beads and methanol/water (1:1) (v/v) as solvent. After centrifugation, samples were analyzed by UPLC-MS/MS.
# Chromatographic separation was carried out using an Acquity CSH Fluoro Phenyl column (1.7 μm, 50×2.1 mm). Mobile phase consisted of a gradient using 0.1% formic acid in water and acetonitrile from 5% to 45% in 4.5 min at a flow rate of 0.6 ml/min.
# With regard to the mass spectrometric detection, the electrospray ionization source worked to record negative ions. Multiple Reaction Monitoring (MRM) acquisition mode of the deprotonated molecular ions was performed. The transition monitored for CDO was m/z 189.0→80.1 with a cone voltage of 45 V and collision energy of 25 eV.
# [2] = tested on: oxidized glutathione (GSSG); assay: Antioxidant capacity: GSSG in homogenized retinas, streptozotocin diabetic retinopathy model; assay type: in vivo, SD male rats; settings: diabetic rats, CDO 10 mg/ml topical 10 μl/eye TID 28 days; P<0.01 group II vs. group III
# Procedure: (§1) Diabetes was induced in SD male rats by single intraperitoneal injection of streptozotocin (STZ) at 60 mg/kg body weight in citrate buffer (pH 4.5). Seven days after STZ administration, blood glucose was measured and the level of 250 mg/dl was considered the threshold value to consider diabetes induction. Ophthalmic treatment with CDO at 10 mg/ml (topical instillation of 10 μl/eye) was initiated once hyperglycemia was confirmed and continued for 28 days three times a day (TID). Rats were randomly divided in 3 groups: I. Control (non-diabetic), II. Diabetic rats with no treatment and III. Diabetic rats with CDO at 10 mg/ml.
# At day 29 CDO was instilled a single time at 10 mg/ml in the group III, rats were euthanized and retinas were collected 15 minutes post-administration.
# The antioxidant capacity was evaluated by determining the concentrations of Glutathione disulfide (GSSG) or oxidized glutathione in the homogenized retinas. Tissues were collected at day 29 and homogenized in PBS pH 6-7 containing 1 mM EDTA. After centrifugation at 10000 rpm, an aliquot of the supernatant was diluted in 0.1% formic acid and analyzed by UPLC-MS/MS. […]
# With regard to the mass spectrometric detection, the electrospray ionization source worked to record negative ions. […] The transition monitored for GSSG was m/z 611.2→306.2 with a cone voltage of 45 V and collision energy of 25 eV.
# [3] = tested on: egg chorioallantoic membrane (CAM); assay: Ocular irritation assay (HET-CAM); set-up: species or system White Leghorn chicken eggs; settings: 100 mg/ml, CAM observed for 5 minutes
# From the text: The HET-CAM is an alternative method to the Draize Rabbit Eye Test which mimics vascular changes in the chorioallantoic membrane, an analog for ocular conjunctiva, which can be used to determine the potential irritancy of a test substance. This method is based on that described in Hen's Egg Test-Chorioallantoic Membrane (HET-CAM) Test Method (ICCVAM-Recommended Test Method Protocol, NIH Publication No. 10-7553—Published 2010)
# Fertilized white SPF (special pathogen free) White Leghorn chicken eggs were incubated at 37° C. and 60% humidity up to day 10. After determination of the viability of the embryo, a rectangular window was removed from the shell directly over the air cell and the egg membrane was carefully moistened with 2-3 ml 0.9% saline. After returning to the incubator for 30 minutes, the inner membrane was removed and the test substance was applied to the CAM membrane with a pipette. Eggs were observed continuously for 5 minutes for the appearance of lysis, hemorrhage and/or coagulation and an irritation score (IS) was determined following the ICCVAM-Recommended Test Method Protocol (NIH Publication No. 10-7553-Published 2010) guideline.
# TNF-α mRNA = assay: Anti-inflammatory activity: relative TNF-α mRNA in retinas, streptozotocin diabetic retinopathy model; assay type: in vivo, SD male rats; settings: diabetic rats, CDO 10 mg/ml topical 10 μl/eye TID 28 days
# Procedure: as §1, with “mg/ml. […]” for “mg/ml.”
# RNA was isolated from each retina by using the commercial kit SV Total RNA Isolation System (Promega) and stored at −80° C. until use. Relative mRNA levels were quantified using a MX3000 (Stratagene) quantitative PCR system. […]
# The qPCR system detects the fluorescence emitted by SYBR, its increase corresponds to exponential increase of the PCR product. The software calculates the threshold cycle (Ct), in which the fluorescence exceeds the background signal. Relative changes in gene expression were calculated using the ΔCt method. […] Relative expression of mRNA in the test samples were determined as fold increase compared with the control sample (non-diabetic).
# [4] = optic nerve, rabbit, Oral 25 mg/Kg = 45 mg, read-out: CDO μg/g tissue Optic nerve
# [5] = optic nerve, rabbit, Topical eye administration 10 mg/ml = 0.3 mg, read-out: CDO μg/g tissue Optic nerve
# [6] = optic nerve, rabbit, Topical eye administration 100 mg/ml = 3.3 mg, read-out: CDO μg/g tissue Optic nerve
# [7] = retina/choroid, rabbit, Oral 25 mg/Kg = 45 mg, read-out: CDO μg/g tissue Retina/Choroid
# [8] = retina/choroid, rabbit, Topical eye administration 10 mg/ml = 0.3 mg, read-out: CDO μg/g tissue Retina/Choroid
# [9] = retina/choroid, rabbit, Topical eye administration 100 mg/ml = 3.3 mg, read-out: CDO μg/g tissue Retina/Choroid
smiles,measurement,setting,value
"O=S(=O)(O)c1cc(O)ccc1O [CDO, Calcium dobesilate monohydrate]",concentration at 0.25 h,[1]; [4],0.74 µg/g
same,concentration at 1 h,[1]; [4],1.61 µg/g
same,concentration at 3 h,[1]; [4],0.49 µg/g
same,concentration at 6 h,[1]; [4],0.1 µg/g
same,concentration at 0.25 h,[1]; [5],0.23 µg/g
same,concentration at 1 h,[1]; [5],0.76 µg/g
same,concentration at 3 h,[1]; [5],0.65 µg/g
same,concentration at 6 h,[1]; [5],0.45 µg/g
same,concentration at 0.25 h,[1]; [6],14.4 µg/g
same,concentration at 1 h,[1]; [6],22.9 µg/g
same,concentration at 3 h,[1]; [6],4.5 µg/g
same,concentration at 6 h,[1]; [6],1.92 µg/g
same,concentration at 0.25 h,[1]; [7],0.43 µg/g
same,concentration at 1 h,[1]; [7],0.95 µg/g
same,concentration at 3 h,[1]; [7],0.28 µg/g
same,concentration at 6 h,[1]; [7],0.12 µg/g
same,concentration at 0.25 h,[1]; [8],0.27 µg/g
same,concentration at 1 h,[1]; [8],0.29 µg/g
same,concentration at 3 h,[1]; [8],0.16 µg/g
same,concentration at 6 h,[1]; [8],0.11 µg/g
same,concentration at 0.25 h,[1]; [9],7.88 µg/g
same,concentration at 1 h,[1]; [9],6.41 µg/g
same,concentration at 3 h,[1]; [9],3.47 µg/g
same,concentration at 6 h,[1]; [9],1.14 µg/g
same,CDO amounts in target tissues (optic nerve and retina choroids) 6 hours after topical ocular administration,"[1]; rabbit, 6 hours after topical ocular administration",could be detected
same,"values of CDO in target tissues, topical vs. single oral dose","[1]; rabbits, topical eye single low dose 0.3 mg vs oral 45 mg",equivalent to those of a single oral dose (45 mg)
same,"levels of the drug in target tissues, topical vs. single oral dose","[1]; rabbits, topical single dose CDO 3.3 mg vs single oral dose",higher levels of the drug are detected than those obtained following a single oral dose
same,retinal concentrations of GSSG,[2],return concentrations of GSSG at the same level as the control group
same,HET-CAM irritation characterization,[3],not irritating
same,"HET-CAM lysis, haemorrhage or coagulation processes",[3],"did not trigger any lysis, haemorrhage or coagulation processes"
same,TNF-α mRNA expression of treated group vs control group (non-diabetic),TNF-α mRNA,slightly lower than the control group
